Results as given in US11548875B2, “Inhibitor compounds for male contraception” (University of Washington, priority 2018, dated 2023).

Experiments:
ALDH1A1 = target: T1, ALDH1A1 (Homo sapiens, UniProt P00352); assay: Cell-based enzyme assay, retinoic acid production in ALDH1A1/H1299 cells; settings: cell-based
T1 sequence (P00352 1-501): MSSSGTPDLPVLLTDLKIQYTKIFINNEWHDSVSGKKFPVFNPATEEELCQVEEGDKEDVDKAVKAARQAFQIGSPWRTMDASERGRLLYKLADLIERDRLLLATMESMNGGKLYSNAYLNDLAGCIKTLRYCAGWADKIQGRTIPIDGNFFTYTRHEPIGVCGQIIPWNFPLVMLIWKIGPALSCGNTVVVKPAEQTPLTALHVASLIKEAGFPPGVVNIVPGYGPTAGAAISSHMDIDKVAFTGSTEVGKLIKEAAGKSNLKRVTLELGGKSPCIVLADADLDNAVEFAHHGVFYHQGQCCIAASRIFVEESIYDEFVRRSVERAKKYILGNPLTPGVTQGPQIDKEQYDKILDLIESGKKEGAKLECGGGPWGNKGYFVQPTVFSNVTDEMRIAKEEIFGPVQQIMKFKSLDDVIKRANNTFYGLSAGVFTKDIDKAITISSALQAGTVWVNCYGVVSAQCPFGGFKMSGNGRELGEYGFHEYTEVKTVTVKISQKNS
Procedure: (§1) ALDH1A1 cDNA clone was purchased transfection-ready, and ALDH1A2 full-length cDNA was subcloned into pcDNA3, a mammalian expression vector. ALDH1A1 and ALDH1A2 were transfected into H1299 cells (CRL5803, ATCC) using Lipofectamine 3000 (Invitrogen) following the manufacturer's instructions. Stably transfected cells were selected with G418 (1.2 mg/ml) and referred to as ALDH1A1/H1299 and ALDH1A2/H1299. For the cell-based enzyme assays,
(§2) H1299 cells were routinely grown in RPMI-1640 (ATCC) supplemented with 10% fetal bovine serum (Atlanta Biologicals) in a 37 C, 5% CO2, moisture-saturated atmosphere. H1299, ALDH1A1/H1299 and ALDH1A2/H1299 cells were seeded into 12-well plates (1×10^5 cells/well) and grown for 2 days to confluence. Confluent cells were treated for 20 hours in the above media excluding serum with 2 μM all-trans-retinal, and varying concentrations of inhibitors. Serum-free media was used for the treatment period to avoid retinoic acid in serum. Retinoic acid concentrations were determined from cells and media, and specificity of inhibitors was determined by comparing retinoic acid levels in the presence and absence of the inhibitors in ALDH1A1- vs. ALDH1A2-expressing cells.

ALDH1A2 [1] = target: T2, ALDH1A2 (Homo sapiens, UniProt O94788); assay: Cell-based enzyme assay, retinoic acid production in ALDH1A2/H1299 cells; settings: cell-based
T2 sequence (O94788 1-518): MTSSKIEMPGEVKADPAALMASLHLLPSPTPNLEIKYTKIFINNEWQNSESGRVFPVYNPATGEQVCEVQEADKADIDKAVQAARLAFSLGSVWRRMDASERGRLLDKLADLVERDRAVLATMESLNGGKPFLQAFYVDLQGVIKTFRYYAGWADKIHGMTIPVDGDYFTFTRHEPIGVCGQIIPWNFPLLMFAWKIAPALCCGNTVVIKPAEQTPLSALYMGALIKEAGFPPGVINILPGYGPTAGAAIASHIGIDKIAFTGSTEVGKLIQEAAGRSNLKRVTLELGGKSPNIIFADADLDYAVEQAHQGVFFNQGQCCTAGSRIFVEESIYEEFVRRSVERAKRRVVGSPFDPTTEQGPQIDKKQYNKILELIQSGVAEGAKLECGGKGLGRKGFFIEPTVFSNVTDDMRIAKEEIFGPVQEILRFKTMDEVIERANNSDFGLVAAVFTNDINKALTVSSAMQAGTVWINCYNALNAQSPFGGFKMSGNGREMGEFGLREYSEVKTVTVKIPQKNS
Procedure: as §1, §2

ALDH1A2 [2] = target: T2, ALDH1A2; assay: Inhibitor screening using purified enzymes: ALDH1A2 activity, retinoic acid production by HPLC (5 uM initial screen, then IC50); type: biochemical; design: histidine-tag (C); made in house; host or cells: bacterial expression (pET28 vector, IPTG induction); settings: purified enzyme
From the text: (§3) ALDHs were cloned into bacterial expression vector for in vitro enzyme assays and into mammalian expression vectors for cell-based enzyme assays. Human ALDH1A1 cDNA and human ALDH2 cDNA were purchased from OriGene (SC321535) and Open Biosystems (MHS4771-99611182), respectively. and human ALDH1A2 cDNA was cloned from human testis RNA using RT-PCR (Population Division of the Department of Economic and Social Affairs of the United Nations Secretariat. World Population prospects: the 2008 revision. Available at http://www.un.org/esa/population/ (Retrieved Sep. 30, 2011)). For bacterial expression, an open reading frame of ALDH1A1 and ALDH2 were subcloned into the pETite vector (Lucigen) with a 5′ histidine-tag and that of ALDH1A2 into a pET28 vector (Novagen) with a 3′ histidine-tag. Correct frame and sequences were verified through DNA sequencing (UW DNA sequencing facility). ALDHs were induced with 1 mM IPTG and purified using His.Bind resin (Novagen, San Diego, Calif.) and stored in a buffer containing 20 mM Hepes (pH 8), 150 mM KCl and 1 mM EDTA as previously described (Fierce, Y., de Morais Vieira, M., Piantedosi, R., Wyss, A., Blaner, W. S., and Paik, J. (2008) In vitro and in vivo characterization of retinoid synthesis from beta-carotene. Archives of biochemistry and biophysics 472, 126-138).
ALDH1A1 and ALDH1A2 activity was determined as previously reported (Beedle M T, Stevison F, Zhong G, Topping T, Hogarth C, Isoherranen N, Griswold M D. Sources of All-Trans Retinal Oxidation Independent of the Aldehyde Dehydrogenase 1A Isozymes Exist in the Postnatal Testis. Biol Reprod. 2018 Sep. 21. doi: 10.1093/biolre/ioy200). Briefly, purified enzymes were incubated in a buffer containing 10 mM HEPES buffer (pH 8.0), 150 mM potassium chloride and 2 mM EDTA with 2 mM NAD. Retinoic acid production was determined using HPLC as previously reported (Amory J K, Muller C H, Shimshoni A J, Isoherranen N, Paik J, Moreb J S, Amory D W, Evanoff R, Goldstein A S, Griswold M D. Suppression of spermatogenesis by bisdichloroacetyldiamines is mediated by inhibition of testicular retinoic acid biosynthesis. Journal of Andrology 2011; 32(1):111-119). Inhibitors were diluted in DMSO and added to the reactions. […] For initial screening of inhibitors for ALDH1A2, 1 μg ALDH1A2, 5 μM all-trans-retinal and 5 μM inhibitors were incubated for 15 min at 37° C. […] For this purpose, 0.5 μg ALDH1A2 and […] were incubated for 5 minutes at 37° C. with varying concentrations of inhibitors. To determine specificity toward ALDH1A2, the IC50 for […]

ALDH2 = target: T3, ALDH2 (Homo sapiens, UniProt P05091); assay: Purified ALDH2 assay with propanal, NADH fluorescence; type: biochemical; settings: purified enzyme
T3 construct: histidine-tag (N); made in house; host or cells: bacterial expression (pETite vector, IPTG induction)
T3 sequence (P05091 18-517): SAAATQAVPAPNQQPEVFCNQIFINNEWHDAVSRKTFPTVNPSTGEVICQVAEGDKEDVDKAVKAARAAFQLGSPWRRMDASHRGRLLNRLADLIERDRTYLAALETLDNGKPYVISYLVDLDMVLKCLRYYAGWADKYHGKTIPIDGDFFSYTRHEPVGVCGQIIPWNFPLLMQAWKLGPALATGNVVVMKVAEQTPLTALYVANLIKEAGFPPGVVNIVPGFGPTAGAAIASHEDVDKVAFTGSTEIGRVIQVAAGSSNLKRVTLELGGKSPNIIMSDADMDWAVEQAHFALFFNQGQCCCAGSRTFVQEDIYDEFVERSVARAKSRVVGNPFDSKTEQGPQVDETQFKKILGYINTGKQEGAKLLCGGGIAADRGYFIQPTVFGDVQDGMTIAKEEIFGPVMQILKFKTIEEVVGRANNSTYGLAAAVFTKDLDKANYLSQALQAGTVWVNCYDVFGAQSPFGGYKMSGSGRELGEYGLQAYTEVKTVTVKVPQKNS
From the text: as §3, with “126-138). […]” for “126-138).”
For this, 2 μg purified ALDH2, 20 μM propanal and varying concentrations of inhibitors were incubated at room temperature. Enzyme activity was determined by measuring fluorescence of NADH (Ex, 350 nm/Em, 460 nm) using a Victor3 plate reader (PerkinElmer), and initial velocity was calculated from two consecutive readings over 1 minute.

Molecule	EC50 (ALDH1A1) [µM]	EC50 (ALDH1A2 [1]) [µM]	IC50 (ALDH1A2 [2]) [µM]	IC50 (ALDH2) [µM]
CS(=O)(=O)c1ccc(-c2nn(-c3cccc(Cl)c3)cc2C(=O)Nc2ccccc2O)cc1 [Compound 240, N-(2-Hydroxyphenyl)-3-[4-(methylsulfonyl)phenyl]-1-(3-chlorophenyl)-1H-pyrazole-4-carboxamide]	–	< 0.5	0.036	14.2
CC(=O)Oc1ccc(-c2nn(-c3ccccc3)cc2C=O)cc1 [Cmpd 35]	3.38	0.952	–	–
1-(4-Hydroxymethylphenyl)-3-[4-(methylsulfonyl)phenyl]-N-(3-fluorophenyl)-1H-pyrazole-4-carboxamide [Compound 282]	> 20	0.24	–	–
Nc1cccc(NC(=O)c2cn(-c3ccccc3)nc2-c2ccc([N+](=O)[O-])cc2)c1 [Compound 173, N-(3-Aminophenyl)-3-(4-nitrophenyl)-1-phenyl-1H-pyrazole-4-carboxamide]	–	–	0.383	73.7
O=C(Nc1ccccc1O)c1cn(-c2ccccc2)nc1-c1ccc([N+](=O)[O-])cc1 [Compound 165, N-(2-Hydroxyphenyl)-3-(4-nitrophenyl)-1-phenyl-1H-pyrazole-4-carboxamide]	–	–	0.211	23.3

Results, then the molecule that gave them:

EC50 (ALDH1A1) [µM]	EC50 (ALDH1A2 [1]) [µM]	IC50 (ALDH1A2 [2]) [µM]	IC50 (ALDH2) [µM]	Molecule
18.4	0.4	–	–	CS(=O)(=O)c1ccc(-c2nn(-c3ccc(C(N)=O)cc3)cc2C(=O)Nc2cccc(F)c2)cc1 [Compound 283, 1-(4-Carbomylphenyl)-3-[4-(methylsulfonyl)phenyl]-N-(3-fluorophenyl)-1H-pyrazole-4-carboxamide]
> 20	0.11	–	–	CN(C)C(=O)c1ccc(-n2cc(C(=O)Nc3cccc(F)c3)c(-c3ccc(S(C)(=O)=O)cc3)n2)cc1 [Compound 286, 1-(4-Dimethylcarbomylphenyl)-3-[4-(methylsulfonyl)phenyl]-N-(3-fluorophenyl)-1H-pyrazole-4-carboxamide]
0.81	0.25	–	–	CNC(=O)c1ccc(-n2cc(C(=O)Nc3cccc(F)c3)c(-c3ccc(S(C)(=O)=O)cc3)n2)cc1 [Compound 285, 1-(4-Methylcarbomylphenyl)-3-[4-(methylsulfonyl)phenyl]-N-(3-fluorophenyl)-1H-pyrazole-4-carboxamide]
> 20	0.25	–	–	O=C(O)c1ccc(-n2cc(C(=O)Nc3ccccc3O)c(-c3ccc(O)cc3)n2)cc1 [Compound 307, 4-{3-(4-Hydroxyphenyl)-4-[(2-hydroxyphenyl)carbamoyl]-1H-pyrazol-1-yl}benzoic acid]
> 20	0.042	–	–	CC(=O)Oc1ccccc1OC(=O)c1cn(-c2cccc(Cl)c2)nc1-c1ccc(S(C)(=O)=O)cc1 [Compound 291, 2-(Acetyloxy)phenyl 1-(3-chlorophenyl)-3-[4-(methylsulfonyl)phenyl]-1H-pyrazole-4-carboxylate]
–	< 0.5	0.045	6.32	CS(=O)(=O)c1ccc(-c2nn(-c3ccc(F)cc3)cc2C(=O)Nc2ccccc2O)cc1 [Compound 242, N-(2-Hydroxyphenyl)-3-[4-(methylsulfonyl)phenyl]-1-(4-fluorophenyl)-1H-pyrazole-4-carboxamide]
–	–	0.059	10	CS(=O)(=O)c1ccc(-c2nn(-c3ccccc3)cc2C(=O)Nc2cccnc2)cc1 [Compound 253, 3-[4-(Methylsulfonyl)phenyl]-1-phenyl-N-(pyridin-3-yl)-1H-pyrazole-4-carboxamide]
–	–	0.342	2.07	O=C(c1ccc(O)s1)N1CCN(c2ccc([N+](=O)[O-])c(N3CCCC3)c2)CC1 [Compound 335]
